Assay results taken from patent publication US4048299A, “Anticaries confectionaries and oral health products” (William Wrigley, Jr. Co., priority 1970, dated 1977).

Tests used:
Lactobacillus casei = assay: Acid production inhibition, broth-tube technique; conditions: single agent
Description: (§3) The data was compiled through well-known broth tube analysis techniques.
(a)Measured by broth-tube technique.

[1] = In vivo caries evaluation, laboratory animals (summary); conditions: one percent level in diet
Description: (§1) Standard laboratory techniques were used to complie the data presented. In each case the aldehyde was incorporated into each specimen's food in a one percent, by weight, quantity, over a period of several weeks. In all cases, caries reduction was noted.
(§2) The aldehydes tested in vivo were pyruvaldehyde, d,1-glyceraldehyde, crystalline dimer, glycolaldehyde, octanaldehyde, nonanaldehyde, decanaldehyde, undecylenic aldehyde, and lauric aldehyde. The polyaldehydes tested were dialdehyde starch, dialdehyde starch 50 percent oxidized, dialdehyde starch 90 percent oxidized, and dialdehyde galactomannan gum.

[2] = In vivo caries evaluation, Osborne-Mendel strain 1 rat; design: species or system rat (Osborne-Mendel strain 1); Caries Score, Mean Incidence / Caries Score, Mean Extent: scale not given here; conditions: Table I, 90 days
Description: as §1, §2
^(a) Agents were incorporated in the diet at a 1 percent level.

Streptococcus sp. FA-1 = assay: Acid production inhibition, broth-tube technique; conditions: single agent
Description: as §3
(a)Measured by broth-tube technique.

[3] = tested on: Lactobacillus casei ATCC 4646; assay: Acid production inhibition by aldehydes in product vehicles, broth-tube technique; assay type: cell-based; conditions: 1 to 5 percent aldehyde
Streptococcus spp. KI-R [4] = assay: as above; assay type: cell-based; conditions: 1 to 5 percent aldehyde
[5] = tested on: Mixed human oral microorganisms; assay: as above; assay type: cell-based; conditions: 1 to 5 percent aldehyde
Streptococcus spp. KI-R [6] = assay: Growth inhibition by aldehydes in product vehicles, pour-plate technique; assay type: cell-based; conditions: 1 to 5 percent aldehyde
Method in brief: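 Aldehydes (1 to 5 percent by weight) were formulated into syrups, candies, mouthwash, toothpaste or toothpowder, added directly or as aqueous extracts to medium without a carbon source mixed 1:1 with filter-sterilized human saliva. Sugar came from the product or added sucrose. Growth over up to 24 hours was read by pour-plate count.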

[7] = Student's test, 95 percent confidence limit
[8] = in compressed candy tablet, 2 h incubation
[9] = in compressed candy tablet, 5 h incubation
[10] = in compressed candy tablet, 24 h incubation
[11] = in dextrose syrup, 2 h incubation
[12] = in dextrose syrup, 5 h incubation
[13] = in dextrose syrup, 24 h incubation
[14] = in sucrose syrup, 2 h incubation
[15] = in sucrose syrup, 5 h incubation
[16] = in sucrose syrup, 24 h incubation
[17] = in tooth powder (aqueous extract), 2 h incubation
[18] = in tooth powder (aqueous extract), 5 h incubation
[19] = in tooth powder (aqueous extract), 24 h incubation
[20] = in toothpaste (aqueous extract), 2 h incubation
[21] = in toothpaste (aqueous extract), 5 h incubation
[22] = in toothpaste (aqueous extract), 24 h incubation

O=CCO [Glycolaldehyde]
Acid Production Inhibition (Lactobacillus casei; 0.02 percent): 18%
Acid Production Inhibition (Lactobacillus casei; 0.025 percent): 23%
Acid Production Inhibition (Lactobacillus casei; 0.03 percent): 27%
Anticaries effect in laboratory animals [1]: significant anticaries effects
Caries Score, Mean Incidence ([2]; 1 percent in diet, RCD control 23.3 (pyruvaldehyde test), 12.85 (glycolaldehyde test)): 5.53
Caries Score, Mean Extent ([2]; 1 percent in diet, RCD control 64.8 (pyruvaldehyde test), 35.45 (glycolaldehyde test)): 13.19
Caries Extent Reduction, statistical evaluation [2, 7]: Significant
Caries Incidence Reduction, statistical evaluation [2, 7]: Significant
Acid Production Inhibition (Streptococcus sp. FA-1; 0.02 percent): 19%
Acid Production Inhibition (Streptococcus sp. FA-1; 0.03 percent): 39%
Acid Production Inhibition (Streptococcus sp. FA-1; 0.04 percent): 72%
Acid Production Inhibition [3, 8]: 0 Per Cent
Acid Production Inhibition [3, 9]: 0 Per Cent
Acid Production Inhibition [3, 10]: 64 Per Cent
Acid Production Inhibition [3, 11]: 33 Per Cent
Acid Production Inhibition [3, 12]: 3 Per Cent
Acid Production Inhibition [3, 13]: 85 Per Cent
Acid Production Inhibition [3, 14]: 0 Per cent
Acid Production Inhibition [3, 15]: 0 Per cent
Acid Production Inhibition [3, 16]: 86 Per cent
Acid Production Inhibition [3, 17]: 0 Per cent
Acid Production Inhibition [3, 18]: 0 Per cent
Acid Production Inhibition [3, 19]: 73 Per cent
Acid Production Inhibition [3, 20]: 0 Per cent
Acid Production Inhibition [3, 21]: 0 Per cent
Acid Production Inhibition [3, 22]: 0 Per cent
Acid Production Inhibition (Streptococcus spp. KI-R [4]; [8]): 0 Per Cent
Acid Production Inhibition (Streptococcus spp. KI-R [4]; [9]): 0 Per Cent
Acid Production Inhibition (Streptococcus spp. KI-R [4]; [10]): 73 Per Cent
Acid Production Inhibition (Streptococcus spp. KI-R [4]; [11]): 57 Per Cent
Acid Production Inhibition (Streptococcus spp. KI-R [4]; [12]): 81 Per Cent
Acid Production Inhibition (Streptococcus spp. KI-R [4]; [13]): 77 Per Cent
Acid Production Inhibition (Streptococcus spp. KI-R [4]; in mouthwash, 2 h incubation): 0 Per cent
Acid Production Inhibition (Streptococcus spp. KI-R [4]; in mouthwash, 5 h incubation): 0 Per cent
Acid Production Inhibition (Streptococcus spp. KI-R [4]; in mouthwash, 24 h incubation): 78 Per cent
Acid Production Inhibition (Streptococcus spp. KI-R [4]; [14]): 19 Per cent
Acid Production Inhibition (Streptococcus spp. KI-R [4]; [15]): 85 Per cent
Acid Production Inhibition (Streptococcus spp. KI-R [4]; [16]): 84 Per cent
Acid Production Inhibition (Streptococcus spp. KI-R [4]; [17]): 0 Per cent
Acid Production Inhibition (Streptococcus spp. KI-R [4]; [18]): 0 Per cent
Acid Production Inhibition (Streptococcus spp. KI-R [4]; [19]): 0 Per cent
Acid Production Inhibition (Streptococcus spp. KI-R [4]; [20]): 0 Per cent
Acid Production Inhibition (Streptococcus spp. KI-R [4]; [21]): 0 Per cent
Acid Production Inhibition (Streptococcus spp. KI-R [4]; [22]): 0 Per cent
Acid Production Inhibition [5, 8]: 0 Per Cent
Acid Production Inhibition [5, 9]: 84 Per Cent
Acid Production Inhibition [5, 10]: 72 Per Cent
Acid Production Inhibition [5, 11]: 15 Per Cent
Acid Production Inhibition [5, 12]: 87 Per Cent
Acid Production Inhibition [5, 13]: 87 Per Cent
Acid Production Inhibition ([5]; in mouthwash, 2 h incubation): 0 Per cent
Acid Production Inhibition ([5]; in mouthwash, 5 h incubation): 87 Per cent
Acid Production Inhibition ([5]; in mouthwash, 24 h incubation): 80 Per cent
Acid Production Inhibition [5, 14]: 44 Per cent
Acid Production Inhibition [5, 15]: 90 Per cent
Acid Production Inhibition [5, 16]: 85 Per cent
Acid Production Inhibition [5, 17]: 0 Per cent
Acid Production Inhibition [5, 18]: 82 Per cent
Acid Production Inhibition [5, 19]: 77 Per cent
Acid Production Inhibition [5, 20]: 0 Per cent
Acid Production Inhibition [5, 21]: 0 Per cent
Acid Production Inhibition [5, 22]: 0 Per cent
Growth Inhibition (Streptococcus spp. KI-R [6]; [8]): 99.9 Per Cent
Growth Inhibition (Streptococcus spp. KI-R [6]; [9]): N.S.
Growth Inhibition (Streptococcus spp. KI-R [6]; [10]): N.S.
Growth Inhibition (Streptococcus spp. KI-R [6]; [11]): 99.1 Per Cent
Growth Inhibition (Streptococcus spp. KI-R [6]; [12]): 100 Per Cent
Growth Inhibition (Streptococcus spp. KI-R [6]; [13]): 100 Per Cent
Growth Inhibition (Streptococcus spp. KI-R [6]; in mouthwash, 2 h incubation): 99.98 Per cent
Growth Inhibition (Streptococcus spp. KI-R [6]; in mouthwash, 5 h incubation): 100 Per cent
Growth Inhibition (Streptococcus spp. KI-R [6]; in mouthwash, 24 h incubation): 100 Per cent
Growth Inhibition (Streptococcus spp. KI-R [6]; [14]): 80 Per cent
Growth Inhibition (Streptococcus spp. KI-R [6]; [15]): > 99.9 Per cent
Growth Inhibition (Streptococcus spp. KI-R [6]; [16]): > 99.99 Per cent
Growth Inhibition (Streptococcus spp. KI-R [6]; [17]): N.S.
Growth Inhibition (Streptococcus spp. KI-R [6]; [18]): 93.3 Per cent
Growth Inhibition (Streptococcus spp. KI-R [6]; [19]): 100 Per cent
Growth Inhibition (Streptococcus spp. KI-R [6]; [20]): 0 Per cent
Growth Inhibition (Streptococcus spp. KI-R [6]; [21]): N.S.
Growth Inhibition (Streptococcus spp. KI-R [6]; [22]): N.S.
